Here are results for one molecule from ChEMBL document CHEMBL3045133, “A 2D image-based method for modeling some c-Src tyrosine kinase inhibitors” (Med Chem Res, 2013).

The structures appear in SMILES notation.

The assay addresses Proto-oncogene tyrosine-protein kinase Src (Homo sapiens, UniProt P12931). Kind of assay: Inhibition of c-Src kinase (unknown origin).

The term IC50 denotes the concentration at which inhibition is half-maximal.

Sequence of Proto-oncogene tyrosine-protein kinase Src (P12931 2-536 limits assumed): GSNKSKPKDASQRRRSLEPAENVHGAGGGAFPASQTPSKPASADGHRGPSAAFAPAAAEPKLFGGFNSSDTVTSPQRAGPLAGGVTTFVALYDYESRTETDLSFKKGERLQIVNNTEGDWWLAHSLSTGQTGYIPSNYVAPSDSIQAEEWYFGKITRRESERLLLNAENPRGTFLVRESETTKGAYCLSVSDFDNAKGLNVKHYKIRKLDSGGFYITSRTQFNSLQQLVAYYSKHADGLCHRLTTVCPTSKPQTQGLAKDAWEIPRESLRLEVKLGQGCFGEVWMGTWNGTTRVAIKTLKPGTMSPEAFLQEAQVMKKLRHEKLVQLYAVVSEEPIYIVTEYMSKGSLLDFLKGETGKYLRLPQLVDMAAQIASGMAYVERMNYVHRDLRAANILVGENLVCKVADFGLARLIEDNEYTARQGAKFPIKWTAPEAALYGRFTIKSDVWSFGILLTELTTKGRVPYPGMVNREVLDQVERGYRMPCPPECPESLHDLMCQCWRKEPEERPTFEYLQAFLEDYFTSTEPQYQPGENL

Turning to `Cc1ccccc1-c1cn(-c2ccccc2)c2ncnc(N)c12`, it took 6.31 µM to reach half-maximal inhibition (IC50).
